Source: patent US10316131B2, “Hyperbranched polymer modified with isocyanate linker and mix of short and long chain alkyl polyether” (priority 2014, dated 2019)

Tests used:
[1] = Solubilization measurements with a highthroughput screening robot; type: physicochemical
Experimental: Solubilization measurements were carried out with a highthroughput screening robot. […] After the addition of stirring bars and 24 hours incubation time the samples were filtrated through polypropylene filters in order to separate dissolved active and its solid form. The amount of solubilized active was determined by UV/VIS spectroscopy.

[2] = test system: Puccinia Recondata/Tritici; experiment: Greenhouse test of pesticidal activity on infected wheat, suspension concentrates SC1 and SC2; type: in vivo, Puccinia Recondata/Tritici on wheat variety Monopol
Experimental: An aqueous suspension concentrate (“SC1”) was prepared as in Application Example 1. The pesticidal activity was tested in greenhouse tests on wheat variety Monopol, which was infected with the fungi Puccinia Recondata/Tritici. The plants were treated with SC1 three days after the inoculation at a use rate of […] (200 l water/ha). The use rate of the polymers of the invention was kept constant at 250 g per ha.
The above greenhouse tests were also made with a suspension concenctrate “SC2” of the triazole fungicide 2-[4-(4-chlorophenoxy)-2-(trifluoromethyl)phenyl]-1-(1H-1,2,4-triazol-1-yl)propan-2-ol (“triazole fungicide”) (100 g/ha) instead of fluxapyroxad.

[3] = 10 mg solid active in 3 wt % polymer solution in CIPAC water D, 24 hours, listed as of the active = no polymer

Question: With `NC(=O)N1c2ccccc2C=Cc2ccccc21` [carbamazepine] as the compound, how does the Solubility of carbamazepine [1, 3] read?
Answer: 181 pmm

Question: Which Solubility of fipronil [1] does the source give for `N#Cc1nn(-c2c(Cl)cc(C(F)(F)F)cc2Cl)c(N)c1[S+]([O-])C(F)(F)F` (centres unmarked) [fipronil] here?
Answer: 12 pmm

Question: Which results are given for `Cn1cc(C(=O)Nc2ccccc2-c2cc(F)c(F)c(F)c2)c(C(F)F)n1` [fluxapyroxad]?
Answer: % infected leaf area, use rate of active 33% ([2]; fluxapyroxad SC1, use rate 8.3 pesticide per ha, polymer 250 g per ha, treated three days after inoculation, 7 days after inoculation): 80%; % infected leaf area, use rate of active 100% ([2]; fluxapyroxad SC1, use rate 25 pesticide per ha, polymer 250 g per ha, treated three days after inoculation, 7 days after inoculation): 79%; Solubility of fluxapyroxad [1, 3]: 10 pmm

Question: What does the source list for `CC(O)(Cn1cncn1)c1ccc(Oc2ccc(Cl)cc2)cc1C(F)(F)F` (centres unmarked) [triazole fungicide, 2-[4-(4-chlorophenoxy)-2-(trifluoromethyl)phenyl]-1-(1H-1,2,4-triazol-1-yl)propan-2-ol]?
Answer: % infected leaf area, use rate of active 100% ([2]; triazole fungicide SC2 (100 g/ha) instead of fluxapyroxad): 83%; % infected leaf area, use rate of active 33% ([2]; triazole fungicide SC2 instead of fluxapyroxad, 33% use rate): 91%; Solubility of the triazole fungicide [1, 3]: 15 pmm
